Article PMC9492542, “Brain-restricted mTOR inhibition with binary pharmacology” (Nature, 2022)
Several values for one entry are separate records, joined by “and”; a condition that tells them apart may be missing. Identical values can stand only once.

Experiments:
human PBMCs = experiment: IL-2 secretion of stimulated PBMCs (sandwich ELISA); type: cell-based; set-up: unit not given here
K562 CRISPRi cells = experiment: Cell viability assay (CellTiter-Glo, 72 h) in K562 CRISPRi cells with sgRNA knockdown of FKBP12
Method: Knockdown cells were generated by transducing K562 CRISPRi (sgRNA^–) cells with the sgRNA expression vectors at a multiplicity of infection of less than 1 (20–40% transduction rate) with 8 μg ml^–1 polybrene.
Cells were seeded into 96-well white flat bottom plates (1,000 cells per well) (Corning) and incubated overnight. […] Cell viability was assessed using a commercial CellTiter-Glo (CTG) luminescence-based assay (Promega). In brief, the 96-well plates were equilibrated to room temperature before the addition of diluted CTG reagent (100 μl) (1:4 CTG reagent:PBS). Plates were placed on an orbital shaker for 30 min before recording luminescence using a Spark 20M (TECAN) plate reader.

CO[C@H]1C[C@@H]2CC[C@@H](C)[C@@](O)(O2)C(=O)C(=O)N2CCCC[C@H]2C(=O)O[C@H]([C@H](C)C[C@@H]2CC[C@@H](OCCOCc3cn(CCOCCOCCOCCOCCOCCOCCOCCOCCC(=O)NCCCCn4nc(-c5ccc6oc(N)nc6c5)c5c(N)ncnc54)nn3)[C@H](OC)C2)CC(=O)[C@H](C)/C=C(\C)[C@@H](O)[C@@H](OC)C(=O)[C@H](C)C[C@H](C)/C=C/C=C/C=C/1C [RapaLink-1]
IL-2 secretion (human PBMCs; 0.005081 nM RapaLink-1, +10 μM RapaBlock): 4596.86 and 6574.88 and 5859.62 | IL-2 secretion (human PBMCs; 0.005081 nM RapaLink-1, No RapaBlock): 6581.16 and 6332.27 and 5840.51 | IL-2 secretion (human PBMCs; 0.015242 nM RapaLink-1, +10 μM RapaBlock): 4621.98 and 5392.72 and 5694.48 | IL-2 secretion (human PBMCs; 0.015242 nM RapaLink-1, No RapaBlock): 6342.48 and 6161.37 and 6860.66 | IL-2 secretion (human PBMCs; 0.045725 nM RapaLink-1, +10 μM RapaBlock): 5493.48 and 5276.26 and 6056.43 | IL-2 secretion (human PBMCs; 0.045725 nM RapaLink-1, No RapaBlock): 6261.35 and 6059.04 and 6285.42 | IL-2 secretion (human PBMCs; 0.137174 nM RapaLink-1, +10 μM RapaBlock): 4501.07 and 6329.65 and 6310.02 | IL-2 secretion (human PBMCs; 0.137174 nM RapaLink-1, No RapaBlock): 6367.08 and 6367.6 and 6351.64 | IL-2 secretion (human PBMCs; 0.411523 nM RapaLink-1, +10 μM RapaBlock): 5797.33 and 5310.02 and 6522.53 | IL-2 secretion (human PBMCs; 0.411523 nM RapaLink-1, No RapaBlock): 6337.77 and 6266.32 and 6532.48 | IL-2 secretion (human PBMCs; 1.23457 nM RapaLink-1, +10 μM RapaBlock): 5361.84 and 6623.29 and 6201.15 | IL-2 secretion (human PBMCs; 1.23457 nM RapaLink-1, No RapaBlock): 2712.8 and 2327.56 and 3337.76 | IL-2 secretion (human PBMCs; 3.7037 nM RapaLink-1, +10 μM RapaBlock): 5860.66 and 6735.83 and 6648.15 | IL-2 secretion (human PBMCs; 3.7037 nM RapaLink-1, No RapaBlock): 362.628 and 408.689 and 558.388 | IL-2 secretion (human PBMCs; 11.1111 nM RapaLink-1, +10 μM RapaBlock): 4848.63 and 4895.73 and 6502.64 | IL-2 secretion (human PBMCs; 11.1111 nM RapaLink-1, No RapaBlock): 251.4 and 437.215 and 324.156 | IL-2 secretion (human PBMCs; 33.3333 nM RapaLink-1, +10 μM RapaBlock): 4350.33 and 5093.33 and 4877.15 | IL-2 secretion (human PBMCs; 33.3333 nM RapaLink-1, No RapaBlock): 275.478 and 292.227 and 264.486 | IL-2 secretion (human PBMCs; 100 nM RapaLink-1, +10 μM RapaBlock): 2837.9 and 2542.68 and 2708.61 | IL-2 secretion (human PBMCs; 100 nM RapaLink-1, No RapaBlock): 278.356 and 273.907 and 280.974 | cell growth (K562-dCas9-KRAB) (K562 CRISPRi cells; FKBP12 sgRNA-1, 0.0152416 nM): 105.506 and 102.628 and 96.1562 | cell growth (K562-dCas9-KRAB) (K562 CRISPRi cells; FKBP12 sgRNA-1, 0.0457247 nM): 105.668 and 102.078 and 85.8686 | cell growth (K562-dCas9-KRAB) (K562 CRISPRi cells; FKBP12 sgRNA-1, 1.23457 nM): 94.9833 and 94.8438 and 86.0533 | cell growth (K562-dCas9-KRAB) (K562 CRISPRi cells; FKBP12 sgRNA-1, 3.7037 nM): 89.3098 and 83.2596 and 72.1854 | cell growth (K562-dCas9-KRAB) (K562 CRISPRi cells; FKBP12 sgRNA-1, 11.1111 nM): 53.7829 and 50.941 and 46.1745 | cell growth (K562-dCas9-KRAB) (K562 CRISPRi cells; FKBP12 sgRNA-1, 33.3333 nM): 28.0164 and 26.1284 and 21.6828 | cell growth (K562-dCas9-KRAB) (K562 CRISPRi cells; FKBP12 sgRNA-2, 0.0152416 nM): 97.2191 and 100.632 and 101.126 | cell growth (K562-dCas9-KRAB) (K562 CRISPRi cells; FKBP12 sgRNA-2, 0.0457247 nM): 97.7063 and 99.4263 and 97.7491 | cell growth (K562-dCas9-KRAB) (K562 CRISPRi cells; FKBP12 sgRNA-2, 0.137174 nM): 95.7095 and 97.9482 and 99.6852 | cell growth (K562-dCas9-KRAB) (K562 CRISPRi cells; FKBP12 sgRNA-2, 1.23457 nM): 93.7321 and 94.186 and 93.5157 | cell growth (K562-dCas9-KRAB) (K562 CRISPRi cells; FKBP12 sgRNA-2, 3.7037 nM): 38.5541 and 41.9621 and 38.7138 | cell growth (K562-dCas9-KRAB) (K562 CRISPRi cells; FKBP12 sgRNA-2, 11.1111 nM): 19.9055 and 20.364 and 21.1046 | cell growth (K562-dCas9-KRAB) (K562 CRISPRi cells; FKBP12 sgRNA-2, 33.3333 nM): 15.1403 and 14.2518 and 15.8 | cell growth (K562-dCas9-KRAB) (K562 CRISPRi cells; GAL4-4 sgRNA, 0.0152416 nM): 101.863 and 99.8606 and 100.119 | cell growth (K562-dCas9-KRAB) (K562 CRISPRi cells; GAL4-4 sgRNA, 0.0457247 nM): 103.056 and 100.129 and 98.9614 | cell growth (K562-dCas9-KRAB) (K562 CRISPRi cells; GAL4-4 sgRNA, 0.137174 nM): 97.8709 | cell growth (K562-dCas9-KRAB) (K562 CRISPRi cells; GAL4-4 sgRNA, 1.23457 nM): 71.632 and 70.4313 and 67.4428 | cell growth (K562-dCas9-KRAB) (K562 CRISPRi cells; GAL4-4 sgRNA, 3.7037 nM): 17.746 and 15.8338 and 15.2774 | cell growth (K562-dCas9-KRAB) (K562 CRISPRi cells; GAL4-4 sgRNA, 11.1111 nM): 13.9448 and 13.723 and 15.0323 | cell growth (K562-dCas9-KRAB) (K562 CRISPRi cells; GAL4-4 sgRNA, 33.3333 nM): 13.6321 and 13.22 and 14.5715 | cellular activity after CRISPRi knockdown of FKBP12 (K562 CRISPRi cells; K562 dCas9-KRAB, two sgRNAs): drastically impeded its cellular activity | cell growth (K562-dCas9-KRAB) (K562 CRISPRi cells; No sgRNA + 10 μM FK506, 0.0152416 nM): 90.7304 and 95.49 and 92.3837 | cell growth (K562-dCas9-KRAB) (K562 CRISPRi cells; No sgRNA + 10 μM FK506, 0.0457247 nM): 91.7724 and 93.2742 and 91.026 | cell growth (K562-dCas9-KRAB) (K562 CRISPRi cells; No sgRNA + 10 μM FK506, 0.137174 nM): 91.4157 and 89.1222 and 88.9009 | cell growth (K562-dCas9-KRAB) (K562 CRISPRi cells; No sgRNA + 10 μM FK506, 1.23457 nM): 91.763 and 90.0617 and 88.7417 | cell growth (K562-dCas9-KRAB) (K562 CRISPRi cells; No sgRNA + 10 μM FK506, 3.7037 nM): 89.7918 and 91.174 and 89.4532 | cell growth (K562-dCas9-KRAB) (K562 CRISPRi cells; No sgRNA + 10 μM FK506, 11.1111 nM): 86.3008 and 85.9782 and 86.561 | cell growth (K562-dCas9-KRAB) (K562 CRISPRi cells; No sgRNA + 10 μM FK506, 33.3333 nM): 70.168 and 69.6522 and 67.2473 | cell growth (K562-dCas9-KRAB) (K562 CRISPRi cells; No sgRNA, 0.0152416 nM): 98.221 and 102.996 and 99.7082 | cell growth (K562-dCas9-KRAB) (K562 CRISPRi cells; No sgRNA, 0.0457247 nM): 104.804 and 96.4373 and 102.095 | cell growth (K562-dCas9-KRAB) (K562 CRISPRi cells; No sgRNA, 0.137174 nM): 98.0154 and 97.5628 and 102.366 | cell growth (K562-dCas9-KRAB) (K562 CRISPRi cells; No sgRNA, 1.23457 nM): 69.0104 and 68.6714 and 68.1063 | cell growth (K562-dCas9-KRAB) (K562 CRISPRi cells; No sgRNA, 3.7037 nM): 15.0031 and 16.0719 and 14.3485 | cell growth (K562-dCas9-KRAB) (K562 CRISPRi cells; No sgRNA, 11.1111 nM): 13.4023 and 12.2624 and 12.6642 | cell growth (K562-dCas9-KRAB) (K562 CRISPRi cells; No sgRNA, 33.3333 nM): 12.1483 and 12.1908 and 11.8583
